Data: patent publication EP2842558A1, “CGRP RESP[…]” (Kao Corporation, priority 2012, dated 2013)

Tested on: Normal human coronary artery smooth muscle cells (HCASMC)
Experiment: Measurement of responsiveness to CGRP (intracellular cAMP EIA after 0.5 nM CGRP stimulation)
Assay type: cell-based
Details: lignan at predetermined concentrations during 60 min PDI infiltration and 15 min 0.5 nM CGRP stimulation, control = 0.5 nM CGRP only (100% = 1189.3 fmol/well), Dunnett's test, N = 3, Fig. 1
Method: Normal human coronary artery smooth muscle cells (HCASMC; Kurabo Industries, Ltd., cell lot #01272) were cultured in a growth medium (product obtained by adding 25 ml of FBS, 0.5 ml of hEGF, 0.5 ml of hFGF-B, 0.5 ml of insulin and 0.5 ml of an antibacterial agent to 500 ml of basal medium HuMedia-SB2; Kurabo Industries, Ltd). 0.025% Trypsin/0.01% EDTA was used for the passage. […]
The cells were washed twice with a basal medium (HuMedia-SB2; Kurabo Industries, Ltd.) containing phosphodiesterase inhibitors (PDI), IBMX (3-isobutyl-1-methylxanthine, 500 µM, Sigma-Aldrich Co.), Ro-20-1724 (100 µM; Wako Pure Chemical Industries, Ltd.), and a lignan compound shown below at a predetermined concentration. […] Termination of the reaction was carried out by adding a lysis buffer attached to a cAMP analysis EIA kit (cAMP EIA (non-acetylation); GE Healthcare Biosciences Corp.) to the cells, and the intracellular cAMP concentration ([cAMP]i) was measured according to the method described in the manual. […]
HCASMC (Kurabo Industries, Ltd., cell lot #01272) was prepared under the same conditions as those used in Example 1. […] Thereafter, the cellular responsiveness to CGRP was measured by the same method as that used in Example 1.

SMILES | cellular responsiveness to CGRP (Improve Index, percentage of [cAMP]i)
COc1cc([C@@H]2c3cc4c(c(OC)c3C[C@H]3COC(=O)[C@@H]32)OCO4)cc(OC)c1OC [TD-1] | significantly promoted the cellular responsiveness to CGRP in a concentration-dependent manner
COc1cc([C@@H]2c3cc4c(cc3C[C@H]3COC(=O)[C@@H]32)OCO4)cc(OC)c1OC [TD-2] | significantly promoted the cellular responsiveness to CGRP in a concentration-dependent manner
